Experimental data from ChEMBL document CHEMBL1201862, “PubChem BioAssay data set” (2004).
Calls of active or inactive are those of the source.

Experiments:
Aspartyl aminopeptidase = target: T1, Aspartyl aminopeptidase (Plasmodium falciparum 3D7, UniProt Q8I2J3)
T1 sequence (Q8I2J3 whole entry): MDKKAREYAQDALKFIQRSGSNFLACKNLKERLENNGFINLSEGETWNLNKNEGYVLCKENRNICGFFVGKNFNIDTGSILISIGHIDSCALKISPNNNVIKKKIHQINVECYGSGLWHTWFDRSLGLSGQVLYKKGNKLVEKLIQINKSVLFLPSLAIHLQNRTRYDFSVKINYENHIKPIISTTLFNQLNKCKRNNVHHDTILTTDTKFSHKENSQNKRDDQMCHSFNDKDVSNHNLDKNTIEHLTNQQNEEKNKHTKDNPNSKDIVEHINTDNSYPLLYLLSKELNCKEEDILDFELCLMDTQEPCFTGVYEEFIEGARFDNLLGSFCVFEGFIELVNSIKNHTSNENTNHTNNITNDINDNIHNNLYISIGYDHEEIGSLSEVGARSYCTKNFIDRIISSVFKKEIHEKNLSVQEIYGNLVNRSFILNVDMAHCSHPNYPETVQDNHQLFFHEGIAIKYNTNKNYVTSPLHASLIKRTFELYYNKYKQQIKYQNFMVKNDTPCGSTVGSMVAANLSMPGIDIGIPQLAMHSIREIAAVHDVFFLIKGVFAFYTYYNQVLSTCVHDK

Procathepsin L = Procathepsin L (Homo sapiens, UniProt P07711)
[1] = viability loss of HPDE-C7K cells – cell-based, fluorescence, HTS, primary screen (AID 431); assay type: functional; details: Homo sapiens
[2] = HPDE-C7 pancreatic duct cell viability loss – fluorescence, HTS (AID 430); assay type: functional, cell-based; details: Homo sapiens
[3] = viability of HCT116 lacking mutant beta-catenin – cell-based, human colon tumor, dose response (AID 1045); assay type: functional;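 also: HCT116 colon tumor cells with beta catenin knocked out; cells exposed to compound for 60 hours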
Protein RecA = target: T2, Protein RecA (Mycobacterium tuberculosis, UniProt P9WHJ3); experiment: Fluorescence Cell-Free Homogeneous Dose Retest to Identify Inhibitors of RecA-Intein Splicing Activity. [Related pubchem assays (depositor defined):AID2097, AID2223, AID489010, AID492950]; assay type: functional
T2 sequence (P9WHJ3 whole entry): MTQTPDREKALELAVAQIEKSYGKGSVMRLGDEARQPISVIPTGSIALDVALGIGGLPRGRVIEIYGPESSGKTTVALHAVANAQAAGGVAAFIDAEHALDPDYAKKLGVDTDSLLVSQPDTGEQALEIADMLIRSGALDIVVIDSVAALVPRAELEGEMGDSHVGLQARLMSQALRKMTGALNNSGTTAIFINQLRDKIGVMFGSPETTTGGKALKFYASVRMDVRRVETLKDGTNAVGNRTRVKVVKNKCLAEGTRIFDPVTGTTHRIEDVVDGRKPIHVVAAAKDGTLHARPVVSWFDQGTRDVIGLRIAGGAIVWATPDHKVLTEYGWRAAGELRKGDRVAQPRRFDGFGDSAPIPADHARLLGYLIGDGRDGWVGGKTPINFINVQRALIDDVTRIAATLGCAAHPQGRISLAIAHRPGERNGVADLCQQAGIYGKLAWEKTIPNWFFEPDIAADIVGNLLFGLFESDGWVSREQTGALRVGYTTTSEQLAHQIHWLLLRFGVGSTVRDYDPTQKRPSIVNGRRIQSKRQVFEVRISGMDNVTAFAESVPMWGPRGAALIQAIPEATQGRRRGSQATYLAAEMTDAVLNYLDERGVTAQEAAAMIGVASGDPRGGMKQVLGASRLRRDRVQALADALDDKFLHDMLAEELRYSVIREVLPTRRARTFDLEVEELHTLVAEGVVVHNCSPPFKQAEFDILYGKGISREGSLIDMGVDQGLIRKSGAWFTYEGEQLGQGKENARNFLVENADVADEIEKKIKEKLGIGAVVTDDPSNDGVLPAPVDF

[4] = Vero E6 cell cytotoxicity, dose response, cytotoxicity control for non-replicating M. tuberculosis project, secondary assay (AID 492998); assay type: functional, VeroE6; details: Vero C1008
[5] = Luminescence Cell-Based Dose Confirmation HTS to Identify Inhibitors of Platelet Dense Granule Release. [Related pubchem assays: 1663 (Primary HTS), 1678 (Summary of Project)]; assay type: functional
[6] = target: Luciferin 4-monooxygenase (Photinus pyralis, UniProt P08659); experiment: inhibition of purified Photinus pyralis luciferase – biochemical, luminescence, dose response (AID 1891)
[7] = target: T3, Replicative DNA helicase DnaB (Mycobacterium tuberculosis, UniProt P9WMR3); experiment: DnaB intein splicing inhibitors, dose response, biochemical, cell-free fluorescence (AID 449749); assay type: functional
T3 sequence (P9WMR3 whole entry): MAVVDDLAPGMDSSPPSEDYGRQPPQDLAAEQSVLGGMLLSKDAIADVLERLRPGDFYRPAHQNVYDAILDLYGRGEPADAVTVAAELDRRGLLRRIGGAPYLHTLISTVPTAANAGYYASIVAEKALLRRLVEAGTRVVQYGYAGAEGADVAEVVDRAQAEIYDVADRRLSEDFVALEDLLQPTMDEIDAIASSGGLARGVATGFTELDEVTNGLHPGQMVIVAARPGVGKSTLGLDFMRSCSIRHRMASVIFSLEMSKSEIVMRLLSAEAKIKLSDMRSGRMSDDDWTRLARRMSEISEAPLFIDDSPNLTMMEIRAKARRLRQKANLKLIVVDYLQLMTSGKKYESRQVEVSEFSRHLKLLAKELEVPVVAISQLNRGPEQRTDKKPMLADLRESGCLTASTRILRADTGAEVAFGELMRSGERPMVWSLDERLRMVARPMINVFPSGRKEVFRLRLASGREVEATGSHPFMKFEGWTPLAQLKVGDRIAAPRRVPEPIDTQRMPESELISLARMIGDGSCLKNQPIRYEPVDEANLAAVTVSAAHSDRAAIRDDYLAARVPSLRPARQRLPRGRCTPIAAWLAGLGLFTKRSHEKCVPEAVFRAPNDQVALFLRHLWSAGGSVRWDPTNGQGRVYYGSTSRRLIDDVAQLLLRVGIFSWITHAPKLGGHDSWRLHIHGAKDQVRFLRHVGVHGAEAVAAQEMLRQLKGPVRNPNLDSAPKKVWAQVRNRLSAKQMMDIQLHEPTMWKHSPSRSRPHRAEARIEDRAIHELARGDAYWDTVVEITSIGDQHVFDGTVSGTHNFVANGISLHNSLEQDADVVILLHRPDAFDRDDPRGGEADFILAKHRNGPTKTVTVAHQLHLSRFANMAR

[8] = THP-1 cell cytotoxicity, dose response, cytotoxicity control for non-replicating M. tuberculosis project (AID 489025); assay type: functional
Vero = experiment: cells; assay type: functional; details: Chlorocebus sabaeus
[9] = viability of PTEN-deleted HCT116 cells – cell-based, HCT116 PTEN knockout, dose response (AID 1047); assay type: functional;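 also: HCT116 colon tumor cells with PTEN knocked out; cells exposed to compound for 60 hours before readout; potency for loss of cell viability measured by luminescence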
cells = assay type: functional
[10] = luciferase reporter signal suppression in cells – H4 neuroglioma cells, luminescence, dose response (AID 1990); assay type: functional, cell-based
[11] = HEK-293T cell viability reduction – luminescence, B-cell screen hits, cytotoxicity control for BCR NF-kB inhibitor project, dose response (AID 489021); assay type: functional, cell-based;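 also: HEK-293T cells carrying an NF-kB luciferase reporter; cells exposed to compound for about 14 hours before viability readout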
[12] = alpha-synuclein stem-loop luciferase translation blockers – H4 neuroglioma cells, luminescence, confirmation (AID 1988); assay type: functional, cell-based
[13] = Luminescence Cell-Based Dose Response HTS to Identify Inhibitors of 5'UTR Stem-Loop Driven Prion Protein mRNA Translation in H4 Neuroglioblastoma Cells. [Related pubchem assays: 1827 (Project Summary), 1813 (Primary HTS)]; assay type: functional

Chain of Procathepsin L (P07711 whole entry): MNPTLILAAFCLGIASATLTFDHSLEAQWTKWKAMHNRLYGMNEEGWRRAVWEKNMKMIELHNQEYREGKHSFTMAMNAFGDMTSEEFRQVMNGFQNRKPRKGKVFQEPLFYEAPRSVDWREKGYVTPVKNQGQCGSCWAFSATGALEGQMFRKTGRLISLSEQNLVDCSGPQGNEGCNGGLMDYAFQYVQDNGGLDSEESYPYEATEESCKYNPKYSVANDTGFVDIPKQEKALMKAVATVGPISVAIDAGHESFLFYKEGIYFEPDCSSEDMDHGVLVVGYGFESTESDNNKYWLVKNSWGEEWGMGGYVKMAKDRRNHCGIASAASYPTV
Chain of Luciferin 4-monooxygenase (P08659 whole entry): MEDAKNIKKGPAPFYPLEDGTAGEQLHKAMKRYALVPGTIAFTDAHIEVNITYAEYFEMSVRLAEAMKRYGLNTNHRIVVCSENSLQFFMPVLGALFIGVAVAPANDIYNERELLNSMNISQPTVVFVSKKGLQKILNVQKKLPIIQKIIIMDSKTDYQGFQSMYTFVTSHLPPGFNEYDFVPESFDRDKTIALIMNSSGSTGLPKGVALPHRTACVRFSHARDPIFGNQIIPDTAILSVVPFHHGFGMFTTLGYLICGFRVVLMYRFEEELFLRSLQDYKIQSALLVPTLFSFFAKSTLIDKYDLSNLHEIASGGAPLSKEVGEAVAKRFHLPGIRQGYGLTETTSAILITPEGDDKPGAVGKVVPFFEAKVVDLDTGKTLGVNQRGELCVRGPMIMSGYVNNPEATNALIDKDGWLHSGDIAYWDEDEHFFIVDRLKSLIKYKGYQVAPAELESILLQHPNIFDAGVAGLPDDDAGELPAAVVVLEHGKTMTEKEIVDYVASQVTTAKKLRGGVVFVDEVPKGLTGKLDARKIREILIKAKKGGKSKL

In the case of `Cc1ccc(N=C(S)Nn2cnnc2)c(C)c1`, the IC50 (Aspartyl aminopeptidase) is reported as 2.11 µM (active) and the IC50 (Procathepsin L) is reported as > 59.6 µM (not active).
In the case of `O=C(Nc1cccc(Cl)c1Cl)Nn1cnnc1`, the IC50 (Aspartyl aminopeptidase) is reported as 0.631 µM (active) and the IC50 (Procathepsin L) is reported as > 59.6 µM (not active).
In the case of `CCCCc1ccc(Nc2nc(O)cc(CCC)n2)cc1`, the EC50 [1] is reported as 6.75 µM (active) and the EC50 [2] is reported as 10.8 µM (active).
With `Cc1cccc(OCCN2CSC(=S)N(C)C2)c1` the EC50 [3] was 4.21 µM (active), the EC50 (Protein RecA) was 12.5 µM (active) and the EC50 [1] was 6.24 µM (active). The CC50 [4] was 6.85 µM (active), the EC50 [5] was > 112 µM (not active) and the EC50 [6] was > 112 µM (not active). For the same molecule, the AC50 [7] was 14.7 µM (active), the CC50 [8] was 11.8 µM (active) and the CC50 (Vero) was 7.62 µM (active). The EC50 [9] was 7.66 µM (active), the IC50 (cells) was 10.4 µM (active) and the EC50 [2] was 6.23 µM (active).
In the case of `CC1(C)C2([N+](=O)[O-])CN3CC1([N+](=O)[O-])CN(C2)C3c1ccc(O)c(O)c1` (stereo unspecified), the IC50 (Aspartyl aminopeptidase) is reported as 1.19 µM (active) and the IC50 (Procathepsin L) is reported as > 59.6 µM (not active).
In the case of `Cc1ccc(CSc2nnc(SCC(=O)N/N=C/C=C/c3ccccc3[N+](=O)[O-])s2)cc1`, the EC50 [10] is reported as 9.7 µM (active), the IC50 [11] is reported as > 80 µM (inactive) and the EC50 [12] is reported as 12.1 µM (active). For the same molecule, the EC50 [13] was 12.9 µM (active).
In the case of `Cc1cc(C)cc(C(=O)n2cnnc2N)c1`, the IC50 (Aspartyl aminopeptidase) is reported as 2.89 µM (active) and the IC50 (Procathepsin L) is reported as > 59.6 µM (not active).
